For 23 compounds, CC50 results are on record in article PMC8791477, “Evaluation of SARS-CoV-2 entry, inflammation and new therapeutics in human lung tissue cells” (PLoS Pathogens, 2022).

Structures can show the parent of a compound that is named as a salt. A value given as a limit tells only on which side of the number the result lay.

Data set [1] in a line: in vitro. The following applies: human, CC50 HLT.
Data set [2] in a line: in vitro. The following applies: African green monkey.
The next data set concerns HLT cells. As to conditions: read-out: CC50 HLT; absence of virus.
The next data set deals with VeroE6 cells. The following applies: read-out: CC50 Vero E6; absence of virus.

Consider `CC1(C)Cc2c(-c3ccccc3)c(-c3ccc(Cl)cc3)c(CC(=O)O)n2C1` [Licofelone], for which the CC50 was roughly 53.6 µM in “in vitro [1]” (absence of virus) and greater than 100 µM in the data set “in vitro [2]” (CC50 Vero E6, absence of virus).

As to `Cc1ccnc(NS(=O)(=O)c2ccc(N)cc2)n1` [Sulfamerazine], the CC50 in “in vitro [1]” (absence of virus) is greater than 100 µM; in the data set “in vitro [2]” (CC50 Vero E6, absence of virus), greater than 100 µM.

`O=c1cc(-c2ccc(O)c(O)c2)oc2cc(O)cc(O)c12` [Luteolin]: the CC50 was greater than 100 µM in the data set “in vitro [1]” (absence of virus) and greater than 100 µM in “in vitro [2]” (CC50 Vero E6, absence of virus).

For `Cc1cccn2c(=O)c(-c3nnn[nH]3)cnc12` [Pemirolast, Pemirolast potassium], the CC50 in “in vitro [1]” (absence of virus) was greater than 100 µM; in the data set “in vitro [2]” (CC50 Vero E6, absence of virus) it was greater than 100 µM.

`Oc1ccc(CC2NCCc3cc(O)c(O)cc32)cc1` (stereo not shown) [Higenamine, Higenamine hydrochloride]: the CC50 in the data set “in vitro [1]” (absence of virus) is greater than 100 µM; in “in vitro [2]” (CC50 Vero E6, absence of virus), greater than 100 µM.

Turning to `CC1=C(CC(=O)O)c2cc(F)ccc2/C1=C\c1ccc([S+](C)[O-])cc1` (stereo not shown) [Sulindac], the CC50 in “in vitro [1]” (absence of virus) was greater than 100 µM; in the data set “in vitro [2]” (CC50 Vero E6, absence of virus), greater than 100 µM.

With `Cc1cc(O)c2c(=O)c3c(O)cc(O)c4c5c(O)cc(O)c6c(=O)c7c(O)cc(C)c8c1c2c(c34)c(c78)c65` [Hypericin], the CC50 in “in vitro [1]” (absence of virus) came out at 0.14 µM; in the data set “in vitro [2]” (CC50 Vero E6, absence of virus) it was 4.8 µM.

For `CC(C)[C@H](N)C(=O)OCCOCn1cnc2c(=O)[nH]c(N)nc21` [Valaciclovir], the CC50 is greater than 100 µM in the data set “in vitro [1]” (absence of virus) and greater than 100 µM in the data set “in vitro [2]” (CC50 Vero E6, absence of virus).

`CCCCCCCCCCCC(=O)OCC(O)CO` (stereo not shown) [Monolaurin]: the CC50 in the data set with HLT cells and with VeroE6 cells was greater than 100 µM throughout.

Consider `CCCCCCCCCCCCOS(=O)(=O)[O-].[Na+]` [SLS, Sodium lauryl sulfate], for which the results for the CC50 in the data set on HLT cells and with VeroE6 cells were roughly 83.2 µM and 87 µM, respectively.

Turning to `C[C@H](O)[C@H](O)[C@H]1CNc2nc(N)[nH]c(=O)c2N1` [Tetrahydrobiopterin, Tetrahydrobiopterin dihydrochloride], the CC50 was greater than 100 µM in the data set “in vitro [1]” (absence of virus) and greater than 100 µM in the data set “in vitro [2]” (CC50 Vero E6, absence of virus).

`CCCCCCCCCC(=O)OCC(O)CO` (stereo not shown) [Monocaprin]: the CC50 in the data set on HLT cells and in the data set on VeroE6 cells was greater than 100 µM throughout.

Consider `O=C1C[C@@H](c2ccc(O)c(O)c2)Oc2cc(O)cc(O)c21` [Eriodictyol], for which the CC50 in “in vitro [1]” (absence of virus) was greater than 100 µM; in the data set “in vitro [2]” (CC50 Vero E6, absence of virus), greater than 100 µM.

As for `[H]/N=C(/N)N/C(=N/[H])NCCc1ccccc1` [Phenformin], the CC50 in “in vitro [1]” (absence of virus) is greater than 100 µM; in the data set “in vitro [2]” (CC50 Vero E6, absence of virus), greater than 100 µM.

With `Cc1ccc(-c2cc(C(F)(F)F)nn2-c2ccc(S(N)(=O)=O)cc2)cc1` [Celecoxib], the CC50 in the data set “in vitro [1]” (absence of virus) is roughly 100 µM; in the data set “in vitro [2]” (CC50 Vero E6, absence of virus) it was 13 µM.

For the compound `C[C@]1(Cn2ccnn2)[C@H](C(=O)O)N2C(=O)C[C@H]2S1(=O)=O` [Tazobactam], the CC50 in “in vitro [1]” (absence of virus) is greater than 100 µM; in the data set “in vitro [2]” (CC50 Vero E6, absence of virus), greater than 100 µM.

With `O=C1CN(/N=C/c2ccc([N+](=O)[O-])o2)C(=O)N1` [Nitrofurantoin], the CC50 in the data set “in vitro [1]” and in the data set “in vitro [2]” (CC50 Vero E6) was greater than 100 µM in each case.

As for `O=c1c(O)c(-c2ccc(O)c(O)c2)oc2cc(O)cc(O)c12` [Quercetin], the CC50 in the data set “in vitro [1]” (absence of virus) is greater than 100 µM; in the data set “in vitro [2]” (CC50 Vero E6, absence of virus), greater than 100 µM.

`N#C[C@@H]1CCCN1C(=O)CNC12CC3CC(CC(O)(C3)C1)C2` [Vidagliptin, Vildagliptin]: the CC50 in “in vitro [1]” (absence of virus) is greater than 100 µM; in the data set “in vitro [2]” (CC50 Vero E6, absence of virus) it was greater than 100 µM.

Take `O=C1Nc2ccccc2/C1=C1/Nc2ccccc2C1=O` [Indirubin]: the CC50 in “in vitro [1]” and in “in vitro [2]” (CC50 Vero E6) was greater than 100 µM in each case.

On to `N[C@@H](CC(=O)N1CCn2c(nnc2C(F)(F)F)C1)Cc1cc(F)c(F)cc1F` [Sitagliptin], for which the CC50 in “in vitro [1]” (absence of virus) is greater than 100 µM; in the data set “in vitro [2]” (CC50 Vero E6, absence of virus) it was greater than 100 µM.

Regarding `CN(C)C(=N)N=C(N)N` [Metformin], the CC50 in the data set “in vitro [1]” (absence of virus) was greater than 100 µM; in “in vitro [2]” (CC50 Vero E6, absence of virus), greater than 100 µM.

Take `CC1(C)[C@@H](O[C@H]2O[C@H](C(=O)O)[C@@H](O)[C@H](O)[C@H]2O[C@@H]2O[C@H](C(=O)O)[C@@H](O)[C@H](O)[C@H]2O)CC[C@]2(C)[C@H]3C(=O)C=C4[C@@H]5C[C@@](C)(C(=O)O)CC[C@]5(C)CC[C@@]4(C)[C@]3(C)CC[C@@H]12` [Glycyrrhizin]: the CC50 in “in vitro [1]” (absence of virus) was greater than 100 µM; in the data set “in vitro [2]” (CC50 Vero E6, absence of virus), greater than 100 µM.
